According to US5180729A, “Use of sigma receptor antagonists for treatment of cocaine abuse” (Du Pont Merck Pharmaceutical Company, priority 1991, dated 1993):

System: cocaine-induced motor activity
Assay: Cocaine-induced behavior and baseline motor activity, same animal system (haloperidol)
Type: in vivo
Conditions: for Effect on baseline motor activity in the absence of cocaine (in words): same animal system as Ex. No. 504, cocaine-free animals
Experimental: Cocaine was administered to mice or rats and its effect in stimulating motor activity was quantified. The cocaine-stimulated motor activity was used to evaluate the effects of the sigma receptor antagonist in reducing this enhanced motor stimulation, i.e., counteracting the pharmacological effect of cocaine in the animal.

O=C(CCCN1CCC(O)(c2ccc(Cl)cc2)CC1)c1ccc(F)cc1 [haloperidol]
Effect on cocaine-induced behavior (in words) (same animal system as Ex. No. 504): did not specifically inhibit cocaine-induced behavior
Effect on baseline motor activity in the absence of cocaine (in words): significantly depressed baseline motor activity
Effect on baseline motor activity in the absence of cocaine (in words) (listed as Haloperidol): adverse non-selective attenuation of normal motor activity
